Experimental data from the supplement of paper PMC10627819.

Columns and labels:
Assay in all cases: fitness (endpoint OD595 vs no drug) (fraction); higher = more growth
S. aureus Newman = tested on: S. aureus Newman
Method in brief: (§1)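 Background-subtracted growth curves were the basis for fitness, taken as the optical density at entry into stationary phase over the robust mean of no-drug control wells. A cap of 1 was applied. The curves came from OD595 readings every 30 min for 14 h at 37 °C, in 384-well plates seeded at OD595 0.01 with 30 µl, or 55 µl for S. pneumoniae.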

S. pneumoniae D39V = tested on: S. pneumoniae D39V
Method in brief: as §1

B. subtilis 168 = tested on: B. subtilis 168
Method in brief: as §1

CO/N=C(\C(=O)N[C@@H]1C(=O)N2C(C(=O)O)=C(COC(C)=O)CS[C@H]12)c1csc(N)n1 [Cefotaxime] + CC1(C)S[C@@H]2[C@H](NC(=O)Cc3ccccc3)C(=O)N2[C@H]1C(=O)O [Penicillin G]
fitness, S. aureus Newman
Settings | first compound 0.078 µg/mL | first compound 0.156 µg/mL | first compound 0.312 µg/mL
partner 0.0195 µg/mL | 0.677 | 0.506 | 0.297
partner 0.039 µg/mL | 0.644 | 0.49 | 0.288
partner 0.078 µg/mL | 0.693 | 0.541 | 0.301

fitness, S. aureus Newman, one replicate
Settings | first compound 0.625 µg/mL | first compound 1.25 µg/mL | first compound 2.5 µg/mL
partner 0.0195 µg/mL | 0.0231 | 0.0448 | 0.071
partner 0.039 µg/mL | 0.0366 | 0.0335 | 0.0438
partner 0.078 µg/mL | 0.0525 | 0.0319 | 0.0774

CC1(C)S[C@@H]2[C@H](NC(=O)Cc3ccccc3)C(=O)N2[C@H]1C(=O)O [Penicillin G] + CC1=C\[C@@H](O)CC(=O)Cc2nc(co2)C(=O)N2CCC=C2C(=O)O[C@H](C(C)C)[C@H](C)/C=C/C(=O)NC\C=C\1 [Virginiamycin M1]
fitness, S. aureus Newman
Settings | first compound 0.0195 µg/mL | first compound 0.039 µg/mL | first compound 0.078 µg/mL
partner 0.0625 µg/mL | 0.896 | 0.929 | 0.917
partner 0.125 µg/mL | 0.935 | 0.924 | 0.955
partner 0.25 µg/mL | 0.914 | 0.913 | 0.925

fitness, S. aureus Newman, one replicate
Settings | first compound 0.0195 µg/mL | first compound 0.039 µg/mL | first compound 0.078 µg/mL
partner 0.5 µg/mL | 0.834 | 0.766 | 0.788
partner 1 µg/mL | 0.916 | 0.877 | 0.856
partner 2 µg/mL | 0.807 | 0.741 | 0.717

O=C(O)c1cn(C2CC2)c2cc(N3CCNCC3)c(F)cc2c1=O [Ciprofloxacin] + CC1(C)S[C@@H]2[C@H](NC(=O)Cc3ccccc3)C(=O)N2[C@H]1C(=O)O [Penicillin G]
fitness, S. aureus Newman
Settings | first compound 0.0375 µg/mL | first compound 0.075 µg/mL | first compound 0.15 µg/mL
partner 0.0195 µg/mL | 0.66 | 0.582 | 0.0269
partner 0.039 µg/mL | 0.679 | 0.593 | 0.0263
partner 0.078 µg/mL | 0.688 | 0.593 | 0.024

CN(C)c1cc(NC(=O)CNC(C)(C)C)c(O)c2c1C[C@H]1C[C@H]3[C@H](N(C)C)C(O)=C(C(N)=O)C(=O)[C@@]3(O)C(O)=C1C2=O [Tigecycline] + Cn1nnc(-c2ccc(-c3ccc(N4C[C@H](CO)OC4=O)cc3F)cn2)n1 [Tedizolid]
fitness
Settings | partner 0.03125 µg/mL | partner 0.0625 µg/mL | partner 0.125 µg/mL | partner 0.25 µg/mL | partner 0.5 µg/mL
S. aureus Newman, first compound 0.039 µg/mL | – | 0.972 | – | – | –
S. aureus Newman, first compound 0.078 µg/mL | – | 0.941 | 0.844 | 0.469 | –
S. aureus Newman, first compound 0.156 µg/mL | – | 0.965 | – | 0.466 | –
S. pneumoniae D39V, first compound 0.65 µg/mL | 0.923 | 0.934 | 0.81 | 0.653 | 0.379
S. pneumoniae D39V, first compound 1.3 µg/mL | 0.911 | 0.903 | 0.791 | 0.658 | 0.353
S. pneumoniae D39V, first compound 2.6 µg/mL | 0.884 | 0.943 | 0.827 | 0.669 | 0.375

CC1(C)S[C@@H]2[C@H](NC(=O)Cc3ccccc3)C(=O)N2[C@H]1C(=O)O [Penicillin G] + CCCCCCCCCC(=O)N[C@@H]1[C@H]([C@@H]([C@H](O[C@H]1OC2=C3C=C4C=C2OC5=C(C=C(C=C5)[C@H]([C@H]6C(=O)N[C@@H](C7=C(C(=CC(=C7)O)OC8[C@H]([C@H]([C@@H]([C@H](O8)CO)O)O)O)C9=C(C=CC(=C9)[C@H](C(=O)N6)NC(=O)[C@@H]4NC(=O)[C@@H]1C2=CC(=CC(=C2)OC2=C(C=CC(=C2)[C@H](C(=O)N[C@H](CC2=CC(=C(O3)C=C2)Cl)C(=O)N1)N)O)O)O)C(=O)O)O[C@H]1[C@@H]([C@H]([C@@H]([C@H](O1)CO)O)O)NC(=O)C)Cl)CO)O)O [Teicoplanin]
fitness, S. aureus Newman, main component drawn
Settings | first compound 0.0195 µg/mL | first compound 0.039 µg/mL | first compound 0.078 µg/mL
partner 0.1562 µg/mL | 0.983 | ≥ 1 | ≥ 1
partner 0.3125 µg/mL | 0.955 | 0.924 | 0.921
partner 0.625 µg/mL | 0.803 | 0.824 | 0.776

fitness, S. aureus Newman, one replicate, main component drawn
Settings | first compound 0.0195 µg/mL | first compound 0.039 µg/mL | first compound 0.078 µg/mL
partner 0.62 µg/mL | 0.697 | 0.741 | 0.715
partner 1.24 µg/mL | 0.702 | 0.732 | 0.711
partner 2.48 µg/mL | 0.377 | 0.393 | 0.284

CC1(C)S[C@@H]2[C@H](NC(=O)Cc3ccccc3)C(=O)N2[C@H]1C(=O)O [Penicillin G] + CN(N=O)C(=O)N[C@@H](C=O)[C@@H](O)[C@H](O)[C@H](O)CO [Streptozotocin]
fitness, S. aureus Newman
Settings | first compound 0.0195 µg/mL | first compound 0.039 µg/mL | first compound 0.078 µg/mL
partner 0.15 µg/mL | 0.759 | 0.731 | 0.709
partner 0.3 µg/mL | 0.623 | 0.627 | 0.621
partner 0.6 µg/mL | 0.501 | 0.486 | 0.493

COc1cccc2c1C(=O)c1c(O)c3c(c(O)c1C2=O)C[C@@](O)(C(=O)CO)C[C@@H]3O[C@H]1C[C@H](N)[C@H](O)[C@H](C)O1 [Doxorubicin] + CC1(C)S[C@@H]2[C@H](NC(=O)Cc3ccccc3)C(=O)N2[C@H]1C(=O)O [Penicillin G]
fitness, S. aureus Newman
Settings | first compound 0.625 µg/mL | first compound 1.25 µg/mL | first compound 2.5 µg/mL
partner 0.0195 µg/mL | 0.705 | 0.711 | 0.698
partner 0.039 µg/mL | 0.727 | 0.718 | 0.734
partner 0.078 µg/mL | 0.752 | 0.72 | 0.692

Cc1ncc([N+](=O)[O-])n1CCO [Metronidazole] + CC1(C)S[C@@H]2[C@H](NC(=O)Cc3ccccc3)C(=O)N2[C@H]1C(=O)O [Penicillin G]
fitness, S. aureus Newman
Settings | first compound 0.625 µg/mL | first compound 0.781 µg/mL | first compound 1.25 µg/mL | first compound 1.562 µg/mL | first compound 2.5 µg/mL | first compound 3.124 µg/mL
partner 0.0195 µg/mL | 0.924 | 0.836 | 0.799 | 0.85 | 0.826 | 0.829
partner 0.039 µg/mL | 0.9 | 0.975 | 0.882 | 0.932 | 0.913 | 0.947
partner 0.078 µg/mL | 0.812 | 0.982 | 0.858 | 0.959 | 0.807 | 0.946

CC1(C)S[C@@H]2[C@H](NC(=O)Cc3ccccc3)C(=O)N2[C@H]1C(=O)O [Penicillin G] + CN[C@@H]1[C@H](O[C@H]2[C@H](O[C@H]3[C@H](O)[C@@H](O)[C@H](N=C(N)N)[C@@H](O)[C@@H]3N=C(N)N)O[C@@H](C)[C@]2(O)C=O)O[C@@H](CO)[C@H](O)[C@H]1O [Streptomycin]
fitness, S. aureus Newman
Settings | first compound 0.0195 µg/mL | first compound 0.039 µg/mL | first compound 0.078 µg/mL
partner 1 µg/mL | 0.903 | 0.878 | 0.887
partner 2 µg/mL | 0.829 | 0.865 | 0.863

CC1(C)S[C@@H]2[C@H](NC(=O)Cc3ccccc3)C(=O)N2[C@H]1C(=O)O [Penicillin G] + Cc1cc(NS(=O)(=O)c2ccc(N)cc2)no1 [Sulfamethoxazol]
fitness, S. aureus Newman
Settings | first compound 0.0195 µg/mL | first compound 0.039 µg/mL | first compound 0.078 µg/mL
partner 1 µg/mL | 0.929 | 0.912 | 0.888
partner 2 µg/mL | 0.957 | – | 0.879

S. aureus Newman, partner 8 µg/mL, one replicate
Settings | fitness
first compound 0.0195 µg/mL | 0.859
first compound 0.039 µg/mL | 0.87
first compound 0.078 µg/mL | 0.882

CC1(C)S[C@@H]2[C@H](NC(=O)Cc3ccccc3)C(=O)N2[C@H]1C(=O)O [Penicillin G] + CN(C)c1cc(NC(=O)CNC(C)(C)C)c(O)c2c1C[C@H]1C[C@H]3[C@H](N(C)C)C(O)=C(C(N)=O)C(=O)[C@@]3(O)C(O)=C1C2=O [Tigecycline]
fitness, S. aureus Newman
Settings | first compound 0.0195 µg/mL | first compound 0.039 µg/mL | first compound 0.078 µg/mL
partner 0.039 µg/mL | 0.879 | 0.879 | 0.864
partner 0.078 µg/mL | 0.898 | 0.919 | 0.913
partner 0.156 µg/mL | 0.904 | 0.924 | 0.913

CO/N=C(\C(=O)N[C@@H]1C(=O)N2C(C(=O)O)=C(COC(N)=O)CS[C@H]12)c1ccco1 [Cefuroxime] + CO/N=C(\C(=O)N[C@@H]1C(=O)N2C(C(=O)[O-])=C(C[N+]3(C)CCCC3)CS[C@H]12)c1csc(N)n1 [Cefepime]
fitness, S. aureus Newman, one replicate
Settings | first compound 0.04875 µg/mL | first compound 0.0975 µg/mL | first compound 0.195 µg/mL
partner 0.125 µg/mL | 0.984 | 0.841 | 0.925
partner 0.25 µg/mL | 0.871 | 0.821 | 0.922
partner 0.5 µg/mL | 0.88 | 0.731 | 0.864

C[C@@H]1O[C@@H]1P(=O)(O)O [Fosfomycin] + CC1(C)S[C@@H]2[C@H](NC(=O)Cc3ccccc3)C(=O)N2[C@H]1C(=O)O [Penicillin G]
fitness, S. aureus Newman
Settings | first compound 0.781 µg/mL | first compound 1.562 µg/mL | first compound 3.124 µg/mL
partner 0.0195 µg/mL | 0.582 | 0.498 | 0.167
partner 0.039 µg/mL | 0.583 | 0.516 | 0.171
partner 0.078 µg/mL | 0.54 | 0.508 | 0.153

CC1(C)S[C@@H]2[C@H](NC(=O)Cc3ccccc3)C(=O)N2[C@H]1C(=O)O [Penicillin G] + CN[C@@H]1[C@H](O)[C@H](NC)[C@H]2O[C@@]3(O)C(=O)C[C@@H](C)O[C@H]3O[C@@H]2[C@H]1O [Spectinomycin]
fitness, S. aureus Newman
Settings | first compound 0.0195 µg/mL | first compound 0.039 µg/mL | first compound 0.078 µg/mL
partner 4 µg/mL | 0.857 | 0.848 | 0.817
partner 8 µg/mL | 0.852 | 0.857 | 0.828
partner 16 µg/mL | 0.844 | 0.806 | 0.802

fitness, S. aureus Newman, one replicate
Settings | first compound 0.0195 µg/mL | first compound 0.039 µg/mL | first compound 0.078 µg/mL
partner 32 µg/mL | 0.462 | 0.35 | 0.272
partner 64 µg/mL | 0.0086 | 0.0192 | 0.0551

CC1(C)S[C@@H]2[C@H](NC(=O)Cc3ccccc3)C(=O)N2[C@H]1C(=O)O [Penicillin G] + COc1ccc(C[C@H](N)C(=O)N[C@H]2[C@@H](O)[C@H](n3cnc4c(N(C)C)ncnc43)O[C@@H]2CO)cc1 [Puromycin]
fitness, S. aureus Newman
Settings | first compound 0.0195 µg/mL | first compound 0.039 µg/mL | first compound 0.078 µg/mL
partner 0.39 µg/mL | 0.879 | 0.933 | 0.909
partner 0.78 µg/mL | 0.914 | 0.935 | 0.868
partner 1.56 µg/mL | 0.929 | 0.941 | 0.961

C[C@H]1c2cccc(O)c2C(=O)C2=C(O)[C@]3(O)C(=O)C(C(N)=O)=C(O)[C@@H](N(C)C)[C@@H]3[C@@H](O)[C@@H]21 [Doxycycline] + COc1cccc2c1C(=O)c1c(O)c3c(c(O)c1C2=O)C[C@@](O)(C(=O)CO)C[C@@H]3O[C@H]1C[C@H](N)[C@H](O)[C@H](C)O1 [Doxorubicin]
fitness
Settings | partner 0.25 µg/mL | partner 0.5 µg/mL | partner 0.625 µg/mL | partner 1 µg/mL | partner 1.25 µg/mL | partner 2.5 µg/mL
B. subtilis 168, first compound 0.02 µg/mL | – | – | 0.915 | – | 0.854 | 0.695
B. subtilis 168, first compound 0.04 µg/mL | – | – | 0.722 | – | 0.712 | 0.58
S. pneumoniae D39V, first compound 0.0155 µg/mL | 0.833 | 0.826 | – | 0.814 | – | –

fitness, S. pneumoniae D39V, one replicate
Settings | partner 0.25 µg/mL | partner 0.5 µg/mL | partner 1 µg/mL
first compound 0.003875 µg/mL | 0.916 | 0.914 | 0.887
first compound 0.00775 µg/mL | 0.885 | 0.891 | 0.848
